Data as given in ChEMBL document CHEMBL1201862, “PubChem BioAssay data set” (2004).
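Cells were grown in 96-well plates and exposed to each compound for 48 hours at five concentrations; endpoints were interpolated linearly between bracketing concentrations, or set to the highest concentration if not reached. Abbreviation: GI50, concentration required for 50% inhibition of growth.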 Calls of active or inactive are those of the source. Rule as the data show it: active = GI50 up to about 1.1 µM and inactive = higher.

How the values were obtained:
Test in all cases: NCI tumour cell line growth inhibition, 48 h
T47D = system: T47D
SR = system: SR
SN12C = system: SN12C
NCI-H460 = system: NCI-H460
OVCAR-8 = system: OVCAR-8
OVCAR-3 = system: OVCAR-3
TK-10 = system: TK-10
M14 = system: M14
HOP-92 = system: HOP-92
Hs-578T = system: Hs-578T
UO-31 = system: UO-31
MDA-MB-231 = system: MDA-MB-231
U-251 = system: U-251
SK-OV-3 = system: SK-OV-3
BT-549 = system: BT-549
NCI-H522 = system: NCI-H522
SK-MEL-5 = system: SK-MEL-5
RXF 393 = system: RXF 393
Malme-3M = system: Malme-3M

O=C(O)CO[C@@]12C#C/C=C\C#C[C@@H]3N(C(=O)Oc4ccccc4)c4ccccc4[C@]14O[C@@]34CCC2
GI50 (T47D): 10.3 µM (inactive) | GI50 (SR): 55.2 µM (inactive) | GI50 (SN12C): 30.5 µM (inactive) | GI50 (NCI-H460): 36.4 µM (inactive) | GI50 (OVCAR-8): 44.6 µM (inactive) | GI50 (OVCAR-3): 47.1 µM (inactive) | GI50 (TK-10): > 100 µM (inactive) | GI50 (M14): 41.1 µM (inactive) | GI50 (HOP-92): 57.4 µM (inactive) | GI50 (Hs-578T): 19.4 µM (inactive) | GI50 (UO-31): 24.1 µM (inactive) | GI50 (MDA-MB-231): 12.9 µM (inactive) | GI50 (U-251): 19.1 µM (inactive) | GI50 (SK-OV-3): 6.75 µM (inactive) | GI50 (BT-549): 30.1 µM (inactive) | GI50 (NCI-H522): 33.5 µM (inactive) | GI50 (SK-MEL-5): 28 µM (inactive)

COC(=O)[C@]1(c2cc3ccccc3[nH]2)CC2CN(CC(=O)N(C)OC)C1C1OC(C)(C)OC21 (stereo partly drawn)
GI50 (T47D): 28.6 µM (inactive) | GI50 (SN12C): 55 µM (inactive) | GI50 (NCI-H460): 39 µM (inactive) | GI50 (OVCAR-8): 75.3 µM (inactive) | GI50 (OVCAR-3): 41.8 µM (inactive) | GI50 (TK-10): 56.6 µM (inactive) | GI50 (M14): 41.3 µM (inactive) | GI50 (RXF 393): 45.8 µM (inactive) | GI50 (HOP-92): 47.8 µM (inactive) | GI50 (Malme-3M): > 100 µM (inactive) | GI50 (Hs-578T): > 100 µM (inactive) | GI50 (UO-31): 37.5 µM (inactive) | GI50 (MDA-MB-231): 31.6 µM (inactive) | GI50 (U-251): 54.3 µM (inactive) | GI50 (SK-OV-3): > 100 µM (inactive) | GI50 (BT-549): 43 µM (inactive) | GI50 (NCI-H522): > 100 µM (inactive) | GI50 (SK-MEL-5): 31 µM (inactive)

O=P1(Cc2ccccc2)N(Cc2ccccc2)[C@@H]2CCCC[C@H]2N1Cc1ccccc1
GI50 (T47D): 5.48 µM (inactive) | GI50 (SR): 2.69 µM (inactive) | GI50 (SN12C): 10.4 µM (inactive) | GI50 (NCI-H460): 8.07 µM (inactive) | GI50 (OVCAR-8): 10 µM (inactive) | GI50 (OVCAR-3): 7.23 µM (inactive) | GI50 (TK-10): 13.5 µM (inactive) | GI50 (M14): 4.34 µM (inactive) | GI50 (RXF 393): 9.51 µM (inactive) | GI50 (Malme-3M): 17.9 µM (inactive) | GI50 (Hs-578T): 10.7 µM (inactive) | GI50 (UO-31): 6.52 µM (inactive) | GI50 (MDA-MB-231): 10.6 µM (inactive) | GI50 (U-251): 11.1 µM (inactive) | GI50 (SK-OV-3): 13 µM (inactive) | GI50 (BT-549): 17.7 µM (inactive) | GI50 (NCI-H522): 3.97 µM (inactive) | GI50 (SK-MEL-5): 1.79 µM (inactive)

CCCC(C)c1c(Cl)nc(Cl)nc1Cl (stereo not drawn)
GI50 (T47D): 6.38 µM (inactive) | GI50 (SR): 4.58 µM (inactive) | GI50 (SN12C): 7.94 µM (inactive) | GI50 (NCI-H460): 11 µM (inactive) | GI50 (OVCAR-8): 19.1 µM (inactive) | GI50 (OVCAR-3): 9.57 µM (inactive) | GI50 (TK-10): 20.9 µM (inactive) | GI50 (M14): 1.71 µM (inactive) | GI50 (RXF 393): 10.6 µM (inactive) | GI50 (Malme-3M): 8.45 µM (inactive) | GI50 (Hs-578T): 9.38 µM (inactive) | GI50 (UO-31): 19.5 µM (inactive) | GI50 (MDA-MB-231): 9.27 µM (inactive) | GI50 (U-251): 9.38 µM (inactive) | GI50 (SK-OV-3): 20.2 µM (inactive) | GI50 (BT-549): 1.99 µM (inactive) | GI50 (NCI-H522): 1.13 µM (inactive) | GI50 (SK-MEL-5): 3.41 µM (inactive)

CC(C)(C)OC(=O)N(CCCCNCc1ccc2ccccc2c1)CCCNCc1ccc2ccccc2c1
GI50 (T47D): 1.74 µM (inactive) | GI50 (SN12C): 1.75 µM (inactive) | GI50 (NCI-H460): 0.736 µM (active) | GI50 (OVCAR-8): 1.67 µM (inactive) | GI50 (OVCAR-3): 1.93 µM (inactive) | GI50 (TK-10): 1.66 µM (inactive) | GI50 (M14): 1.96 µM (inactive) | GI50 (RXF 393): 1.69 µM (inactive) | GI50 (HOP-92): 1.64 µM (inactive) | GI50 (Hs-578T): 1.77 µM (inactive) | GI50 (UO-31): 1.73 µM (inactive) | GI50 (MDA-MB-231): 1.02 µM (active) | GI50 (U-251): 1.89 µM (inactive) | GI50 (SK-OV-3): 1.94 µM (inactive) | GI50 (BT-549): 1.73 µM (inactive) | GI50 (NCI-H522): 1.58 µM (inactive) | GI50 (SK-MEL-5): 1.74 µM (inactive)

Oc1cc(-c2cccc(Br)c2)nc2cc3c(cc12)OCO3
GI50 (T47D): 14.6 µM (inactive) | GI50 (SR): 1.93 µM (inactive) | GI50 (SN12C): 5.6 µM (inactive) | GI50 (NCI-H460): 4.01 µM (inactive) | GI50 (OVCAR-8): 4.57 µM (inactive) | GI50 (OVCAR-3): 3.01 µM (inactive) | GI50 (TK-10): 12.9 µM (inactive) | GI50 (M14): 2.65 µM (inactive) | GI50 (RXF 393): 4.33 µM (inactive) | GI50 (Malme-3M): 2.7 µM (inactive) | GI50 (Hs-578T): 3.32 µM (inactive) | GI50 (UO-31): 5.81 µM (inactive) | GI50 (MDA-MB-231): 10.1 µM (inactive) | GI50 (U-251): 3.56 µM (inactive) | GI50 (SK-OV-3): 3.8 µM (inactive) | GI50 (BT-549): 3.6 µM (inactive) | GI50 (NCI-H522): 3.93 µM (inactive) | GI50 (SK-MEL-5): 1.38 µM (inactive)

C=C(COC(=O)C(C)C)[C@H]1Oc2ccc(C(C)=O)cc2[C@@H]1OC(=O)C(C)C
GI50 (T47D): > 100 µM (inactive) | GI50 (SR): > 100 µM (inactive) | GI50 (SN12C): > 100 µM (inactive) | GI50 (NCI-H460): > 100 µM (inactive) | GI50 (OVCAR-8): > 100 µM (inactive) | GI50 (OVCAR-3): > 100 µM (inactive) | GI50 (TK-10): > 100 µM (inactive) | GI50 (M14): > 100 µM (inactive) | GI50 (RXF 393): > 100 µM (inactive) | GI50 (Malme-3M): > 100 µM (inactive) | GI50 (Hs-578T): 42.6 µM (inactive) | GI50 (UO-31): > 100 µM (inactive) | GI50 (MDA-MB-231): > 100 µM (inactive) | GI50 (U-251): > 100 µM (inactive) | GI50 (SK-OV-3): > 100 µM (inactive) | GI50 (BT-549): > 100 µM (inactive) | GI50 (SK-MEL-5): > 100 µM (inactive)
